Results published in article PMC10251477, “Doubly Constrained C-terminal of Roc (COR) Domain-Derived Peptides Inhibit Leucine-Rich Repeat Kinase 2 (LRRK2) Dimerization” (ACS Chemical Neuroscience, 2023).
Where “and” joins values, the source holds several entries; their conditions need not be identical. Identical values can stand only once. Bridge positions count the residues as written; N and C are the ends. Square brackets hold non-standard residues; d marks the D form. Peptide text beside a SMILES is read from it. * marks the point of attachment. 5FAM = O=C1OC2(c3ccc(O)cc3Oc3cc(O)ccc32)c2ccc(C(=O)*)cc21; S5 = C=CCCC[C@](C)(N)C(=O)O; AEEEA = NCCOCCOCCOCC(=O)O

How the values were obtained:
[1] = biological target: T1, purified full-length LRRK2 dimer (Homo sapiens, UniProt Q5S007); assay: Mass photometry assay of LRRK2 dimerization; format: biochemical; conditions: LRRK2 at 75 nM and 100 nM, 7.5-fold excess of peptide, 30 min, 30 °C, three measurements
T1 construct: Purified full-length LRRK2 was incubated for 30 min; made in house
T1 sequence (Q5S007 whole entry): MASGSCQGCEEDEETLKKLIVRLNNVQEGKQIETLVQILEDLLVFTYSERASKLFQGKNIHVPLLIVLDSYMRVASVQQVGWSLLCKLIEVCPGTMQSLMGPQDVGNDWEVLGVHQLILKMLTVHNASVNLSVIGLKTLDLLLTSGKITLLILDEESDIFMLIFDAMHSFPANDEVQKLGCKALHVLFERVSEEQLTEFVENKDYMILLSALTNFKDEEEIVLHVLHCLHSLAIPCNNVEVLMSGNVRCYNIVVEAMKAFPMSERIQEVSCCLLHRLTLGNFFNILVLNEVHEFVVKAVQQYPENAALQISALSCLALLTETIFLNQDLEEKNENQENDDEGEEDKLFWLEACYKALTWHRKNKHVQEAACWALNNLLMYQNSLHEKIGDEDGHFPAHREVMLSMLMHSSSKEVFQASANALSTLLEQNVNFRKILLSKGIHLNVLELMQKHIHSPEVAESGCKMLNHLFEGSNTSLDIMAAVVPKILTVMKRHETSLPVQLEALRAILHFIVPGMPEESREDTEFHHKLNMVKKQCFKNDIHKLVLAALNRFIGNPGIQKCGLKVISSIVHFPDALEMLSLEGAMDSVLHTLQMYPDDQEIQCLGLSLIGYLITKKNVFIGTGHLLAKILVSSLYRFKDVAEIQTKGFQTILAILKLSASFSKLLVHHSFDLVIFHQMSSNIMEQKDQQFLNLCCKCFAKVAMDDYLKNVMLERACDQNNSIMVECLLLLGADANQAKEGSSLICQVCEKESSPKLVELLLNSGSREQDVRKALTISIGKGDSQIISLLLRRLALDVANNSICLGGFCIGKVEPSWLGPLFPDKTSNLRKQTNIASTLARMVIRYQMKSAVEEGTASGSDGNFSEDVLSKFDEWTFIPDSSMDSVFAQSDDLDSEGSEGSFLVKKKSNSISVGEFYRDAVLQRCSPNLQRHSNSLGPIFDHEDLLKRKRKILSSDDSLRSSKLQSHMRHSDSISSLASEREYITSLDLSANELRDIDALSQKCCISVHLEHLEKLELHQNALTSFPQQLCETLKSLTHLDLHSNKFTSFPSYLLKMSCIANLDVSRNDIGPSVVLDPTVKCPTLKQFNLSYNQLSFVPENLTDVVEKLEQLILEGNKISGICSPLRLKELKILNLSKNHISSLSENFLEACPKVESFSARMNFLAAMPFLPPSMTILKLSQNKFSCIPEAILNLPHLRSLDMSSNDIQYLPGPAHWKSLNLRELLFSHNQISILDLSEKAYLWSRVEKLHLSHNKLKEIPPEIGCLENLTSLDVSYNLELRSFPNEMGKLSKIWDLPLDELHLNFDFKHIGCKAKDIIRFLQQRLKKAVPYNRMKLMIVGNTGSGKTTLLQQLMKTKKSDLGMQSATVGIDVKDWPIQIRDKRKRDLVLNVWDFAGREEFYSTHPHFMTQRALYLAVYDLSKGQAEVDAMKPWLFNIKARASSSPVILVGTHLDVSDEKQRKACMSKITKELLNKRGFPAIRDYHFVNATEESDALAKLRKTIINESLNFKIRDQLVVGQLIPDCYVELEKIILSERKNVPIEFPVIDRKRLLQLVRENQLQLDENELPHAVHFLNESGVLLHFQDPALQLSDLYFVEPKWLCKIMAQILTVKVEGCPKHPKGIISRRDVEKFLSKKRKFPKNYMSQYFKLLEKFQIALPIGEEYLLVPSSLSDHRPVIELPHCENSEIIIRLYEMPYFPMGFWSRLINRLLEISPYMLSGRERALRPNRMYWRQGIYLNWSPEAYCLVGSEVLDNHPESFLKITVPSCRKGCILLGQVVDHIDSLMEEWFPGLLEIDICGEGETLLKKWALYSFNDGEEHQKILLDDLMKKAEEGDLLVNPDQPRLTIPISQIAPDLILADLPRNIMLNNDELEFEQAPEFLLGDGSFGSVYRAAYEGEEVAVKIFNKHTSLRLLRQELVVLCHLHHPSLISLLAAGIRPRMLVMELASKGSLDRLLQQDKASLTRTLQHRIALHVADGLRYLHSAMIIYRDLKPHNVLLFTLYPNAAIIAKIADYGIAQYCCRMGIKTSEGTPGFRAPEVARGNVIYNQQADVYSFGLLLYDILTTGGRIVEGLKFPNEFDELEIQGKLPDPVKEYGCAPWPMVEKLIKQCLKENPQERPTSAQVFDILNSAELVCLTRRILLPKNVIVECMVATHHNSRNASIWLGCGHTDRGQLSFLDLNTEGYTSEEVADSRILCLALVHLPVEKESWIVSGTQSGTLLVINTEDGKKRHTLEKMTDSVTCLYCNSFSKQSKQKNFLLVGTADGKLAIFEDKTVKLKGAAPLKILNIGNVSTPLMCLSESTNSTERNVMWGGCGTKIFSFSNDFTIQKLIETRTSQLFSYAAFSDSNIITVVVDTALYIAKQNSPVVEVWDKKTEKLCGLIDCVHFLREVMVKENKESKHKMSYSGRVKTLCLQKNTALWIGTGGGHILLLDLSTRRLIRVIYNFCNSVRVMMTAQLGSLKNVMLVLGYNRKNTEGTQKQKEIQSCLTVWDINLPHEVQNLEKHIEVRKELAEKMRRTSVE
Procedure: LRRK2 was purified as previously described.[30] LRRK2 was diluted to a concentration of 150 nM or 200 nM and incubated with constrained peptide in a 1:7.5 ratio, for 30 min at 30 °C. Mass photometry was performed on a Refeyn Two^MP instrument.[30] The instrument was first focused with 10 μL of buffer (50 mM HEPES, 150 mM NaCl, 5 mM MgCl2, 1 mM DTT, 0.1 mM GDP, and 1% glycerol) after which 10 μL of the incubated LRRK2 solution was added. The samples were recorded for 1 min. Three measurements were processed for each condition, and the data were analyzed by GraphPad Prism.

[2] = biological target: T2, LRRK2 G2019S homodimers in HEK293T cells (Homo sapiens, UniProt Q5S007, G2019S); assay: Proximity biotinylation of dimeric LRRK2 in cells; format: cell-based; conditions: FAM-labeled peptide 0.5–2.5 μM, 48 h treatment, ELISA of biotinylated LRRK2 normalized to total LRRK2, biological triplicates
T2 construct: expressed in transfected cells; host or cells: HEK293T
T2 sequence (Q5S007 whole entry G2019S): as the sequence (Q5S007 whole entry) above, with G2019S counted along it
Procedure: LRRK2 dimerization was assessed using either wild-type LRRK2 homodimers or LRRK2 G2019S homodimers. Experiments were carried out using various concentrations (0.5, μM, 1 μM, or 2.5 μM) of FAM-labeled ECOR or ECOR […]. The LRRK2 dimers used were purified as previously described.[18] To generate these dimers, two cDNAs encoding LRRK2 fusions with biotin ligase (BirA; N-term, Flag-tagged) or an acceptor peptide (AP, N-term; c-Myc tagged) were created. These constructs were expressed in HEK293T cells grown in biotin-depleted medium (OptiMEM+2% FBS). FAM-labeled ECO[…] and ECO[…] were diluted in serum-free medium and added 24 h after transfection. 48 h following the initial treatment (after 72 h of total expression), cells were washed in PBS, given a brief biotin pulse (50 μM, 5 min, 37 °C), washed three more times in PBS, and centrifuged. The cell pellet was snap frozen in a dry ice/methanol bath and stored at -80 °C until analysis. […] Protein-bound SA coated plates were incubated with HRP-conjugated anti-Flag antibodies for 1 h at room temperature to quantify dimeric LRRK2. Total LRRK2 overexpression was quantified using HRP-conjugated LRRK2 antibody (clone N241) on the parallel anti-LRRK2 coated plates (precoated with anti-LRRK2, clone c41-2) and was used to normalize dimeric LRRK2 content. […]

[3] = tested on: primary cortical neurons expressing LRRK2 G2019S; assay: Neuronal apoptosis in primary cortical neurons; format: cell-based; conditions: primary cortical neurons (E16 C57BL mice) transfected with Flag-LRRK2 G2019S; 0.5–1 μM peptide, 48 h; % Flag-positive neurons with apoptotic nuclei; three biological replicates
Procedure: Neurons were then transfected using Lipofectamine 2000 with Flag-tagged WT LRRK2 or G2019S LRRK2. The following day, neurons were treated with 0.5 μM and 1 μM of both ECO[…] and ECO[…] for 48 h. Cells were washed in PBS and fixed in 3.7% paraformaldehyde for 20 min at 4 °C prior to antibody treatments. Images were analyzed and quantifications were performed as previously described.[30] For the determination of apoptotic neuronal death, fixed and stained neurons were visualized under a 40× magnification objective (dry). On each coverslip, a minimum of 100 Flag-positive neurons were identified and the percentage of those with apoptotic profiles was determined. Apoptotic nuclei were defined as neurons having condensed chromatin, fragmented into at least 2 or more “apoptotic bodies”.

in vitro = in vitro ADME; conditions: human, cells or culture medium
Procedure: Fully confluent HEK293 cells were lysed using ice-cold nondenaturing lysis buffer (20 mM Tris HCL, pH 8.0, 137 mM NaCl, 1% Triton X-100, 2 mM EDTA) and incubated for 30 min at 4 °C. Cells were centrifuged for 20 min at 12 000 rpm, and the supernatant was collected and kept on ice. […] Experiments were conducted at 37 °C with agitation for 0, 2, 4, and 6 h. Aliquots were collected and quenched at each indicated time point using an equal volume of 0.1% trifluoroacetic acid (TFA) in acetonitrile. This solution was then centrifuged at 14 000 rpm for 5 min, and the supernatant was used for analysis. Peptide degradation was analyzed on LC-MS using a Zorbax Eclipse XDB-C18 column as a ratio of peptide to control relative to peptide at t = 0 at 280 nm. A flow rate of 1.0 mL/min at 45 °C was used with a 0–100% water/acetonitrile gradient containing 0.1% TFA. Each individual peptide was analyzed in triplicate for each time point.

[4] = tested on: LRRK2 substrate Rab10 (phospho-T73) in A549 PPM1H knockout cells; assay: Rab10 phosphorylation immunoblotting (LRRK2 kinase activity); format: cell-based; conditions: Western blot; for downregulation of Rab10 phosphorylation: 1 μM and 2.5 μM peptide (both concentrations), 6 h, pRab10 T73 over total Rab10, normalized to GAPDH and untreated control
Procedure: A549 PPM1H knockout cells were treated with 1 μM and 2.5 μM of doubly constrained peptide for 6 h. Cells treated with 1 μM MLi-2 were used as a positive control. Cell lysates were separated by SDS-PAGE and transferred to PVDF membranes by wet transfer. pRab10 T73 and total Rab10 signals were blotted on different membranes with GAPDH as a loading control on the same membrane to save the membrane from the stripping step. The membranes were blocked in nonfat milk and probed with Rab10 (phospho-T73) (Abcam; ab241060, Lot; GR327 4620-4), total Rab10 (Cell Signaling Technology; #4262S), and total GAPDH (14C10) (Cell Signaling Technology; #2118S) antibodies overnight at 4 °C, followed by incubation with HRP anti-rabbit secondary antibody, and developed using ECL. The blots were quantified using Image Studio Lite version 5.2 by selecting the bands to obtain the intensity for each band. The phospho-Rab10, total Rab10, and GAPDH signal for every sample were normalized to its untreated control for the same day. The phospho-Rab10 and total Rab10 signal was further normalized to the GAPDH signal (loading control) on the same blot. The graph was plotted with GAPDH normalized phospho-Rab10 signal over total Rab10 signal for every sample (*normalized to untreated sample). [drawing 1]

MBP-tagged RocCOR LRRK2 = biological target: T3, MBP-tagged RocCOR LRRK2 (Homo sapiens, UniProt Q5S007); assay: Fluorescence polarization (FP) binding assay, wild-type RocCOR; conditions: 10 nM FAM-labeled doubly stapled peptide, wild-type RocCOR 5 μM to 1 nM, 2 mM GTP, 10 mM MgCl2, 20 mM MOPS pH 7, 150 mM NaCl, 0.005% CHAPS, room temperature, 2 h, triplicate
T3 sequence (Q5S007 1328-1840 limits assumed): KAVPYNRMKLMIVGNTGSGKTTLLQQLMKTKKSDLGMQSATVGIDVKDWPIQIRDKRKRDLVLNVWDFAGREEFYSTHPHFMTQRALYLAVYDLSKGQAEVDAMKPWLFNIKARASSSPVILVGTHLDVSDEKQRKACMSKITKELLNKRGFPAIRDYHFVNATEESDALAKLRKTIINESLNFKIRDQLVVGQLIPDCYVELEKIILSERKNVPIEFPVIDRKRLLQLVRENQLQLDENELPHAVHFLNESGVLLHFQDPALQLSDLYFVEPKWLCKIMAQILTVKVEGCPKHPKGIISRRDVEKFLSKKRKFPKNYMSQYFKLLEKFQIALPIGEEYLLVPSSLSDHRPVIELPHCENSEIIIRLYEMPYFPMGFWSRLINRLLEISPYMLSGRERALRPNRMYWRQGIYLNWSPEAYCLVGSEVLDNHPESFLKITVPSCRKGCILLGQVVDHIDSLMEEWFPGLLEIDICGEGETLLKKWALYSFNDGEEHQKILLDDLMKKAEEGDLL
Procedure: Fluorescence polarization assays were conducted on the lead doubly constrained compounds (ECOR and ECOR A12G) with two separate LRRK2 protein constructs: MBP-tagged RocCOR LRRK2 and MBP-tagged R1441C RocCOR LRRK2, both in the presence of 2 mM GTP and 10 mM MgCl2. Protein/peptide interactions were measured in a FP buffer (20 mM MOPS, pH 7, 150 mM NaCl, and 0.005% CHAPS) at room temperature. FAM-labeled peptides were plated in 384-well microtiter plates at a final concentration of 10 nM. Proteins were added over concentrations ranging from 5 μM to 1 nM. Each protein/peptide interaction experiment was carried out at 10 different protein concentrations in triplicate. Each protein/peptide mixture was incubated at room temperature for 2 h and the final reading was performed at the end of this 2 h period.

[5] = tested on: GFP-LRRK2 in HEK293 cells; assay: LRRK2 microtubule localization assay in live cells; format: cell-based; conditions: HEK293 cells overexpressing GFP-LRRK2 24 h, 37 °C, SiR-tubulin stain, live imaging
Procedure: HEK293 cells were transfected with GFP–LRRK2 for 24 h and subsequently treated with DMSO, 1 μM MLi-2, and 2.5 μM ECOR or ECOR A12G peptide for 6 h at 37 °C. The transfected cells were scored single-blinded for skein-like filamentous structures per condition. For tubulin staining, after a 6 h incubation with DMSO, MLi-2, or biotin-labeled peptides, the media was replaced with media containing 1 μM SiR-tubulin (Spirochrome SiR-tubulin Kit (SC002)) and 10 μM verapamil (a broad spectrum efflux pump inhibitor) for 1 h at 37 °C. Live cells were imaged using the 63× oil-immersion objective of a Zeiss LSM800 confocal laser scanning microscope. The Zeiss microscope software ZEN was used to generate channel overlays.

[6] = 2.5 μM biotin-labeled peptide, 6 h, minimum 500 cells scored

CC(C)C[C@H](NC(=O)[C@H](CCCCN)NC(=O)[C@]1(C)CCCC=CCCC[C@](C)(NC(=O)[C@H](Cc2c[nH]cn2)NC(=O)[C@H](CCCCN)NC(=O)[C@H](CCC(=O)O)NC(=O)CNC(=O)[C@H](CC(=O)O)NC(=O)[C@H](CC(N)=O)NC(=O)[C@H](Cc2ccccc2)NC(=O)[C@H](CO)NC(=O)[C@H](Cc2ccc(O)cc2)NC(=O)[C@H](CC(C)C)NC(=O)CNC(=O)[C@H](Cc2c[nH]c3ccccc23)NC(=O)[C@]2(C)CCCC=CCCC[C@](C)(NC(=O)[C@H](CCC(=O)O)NC(=O)CNC(=O)[C@H](CCC(=O)O)NC(=O)CNC(=O)[C@H](CCCCN)NC(=O)COCCOCCOCCNC(=O)c3ccc4c(c3)C(=O)OC43c4ccc(O)cc4Oc4cc(O)ccc43)C(=O)N[C@@H](CC(C)C)C(=O)N[C@@H](CC(C)C)C(=O)N[C@@H](CCCCN)C(=O)N2)C(=O)N[C@@H](CCCCN)C(=O)N[C@@H](CCCCN)C(=O)N[C@@H](CC(C)C)C(=O)N1)C(N)=O [ECOR A12G] ({5FAM-AEEEA}-KGEGE[S5]LLK[S5]WGLYSFNDGEKH[S5]KKL[S5]KL-NH2; staple 6-10, 23-27)
inhibition of LRRK2 dimer formation [1]: strongest dimer inhibition | downregulation of intracellular LRRK2 G2019S dimerization [2]: 50–60% | reduction of cortical neuronal apoptosis [3]: over 50% | remaining at 6 h, 0.2 mM (in vitro): > 80% | downregulation of Rab10 phosphorylation [4]: ~40% | Kd (MBP-tagged RocCOR LRRK2): 45 to 60 nM and 57 nM | localization of LRRK2 to microtubules as filamentous skein-like structures [5, 6]: no significant localization

CC(C)C[C@H](NC(=O)[C@H](CCCCN)NC(=O)[C@]1(C)CCCC=CCCC[C@](C)(NC(=O)[C@H](Cc2c[nH]cn2)NC(=O)[C@H](CCCCN)NC(=O)[C@H](CCC(=O)O)NC(=O)CNC(=O)[C@H](CC(=O)O)NC(=O)[C@H](CC(N)=O)NC(=O)[C@H](Cc2ccccc2)NC(=O)[C@H](CO)NC(=O)[C@H](Cc2ccc(O)cc2)NC(=O)[C@H](CC(C)C)NC(=O)[C@H](C)NC(=O)[C@H](Cc2c[nH]c3ccccc23)NC(=O)[C@]2(C)CCCC=CCCC[C@](C)(NC(=O)[C@H](CCC(=O)O)NC(=O)CNC(=O)[C@H](CCC(=O)O)NC(=O)CNC(=O)[C@H](CCCCN)NC(=O)COCCOCCOCCNC(=O)c3ccc4c(c3)C(=O)OC43c4ccc(O)cc4Oc4cc(O)ccc43)C(=O)N[C@@H](CC(C)C)C(=O)N[C@@H](CC(C)C)C(=O)N[C@@H](CCCCN)C(=O)N2)C(=O)N[C@@H](CCCCN)C(=O)N[C@@H](CCCCN)C(=O)N[C@@H](CC(C)C)C(=O)N1)C(N)=O [ECOR] ({5FAM-AEEEA}-KGEGE[S5]LLK[S5]WALYSFNDGEKH[S5]KKL[S5]KL-NH2; staple 6-10, 23-27)
downregulation of intracellular LRRK2 G2019S dimerization [2]: 50–60% | reduction of cortical neuronal apoptosis [3]: over 50% | remaining at 6 h, 0.2 mM (in vitro): > 80% | downregulation of Rab10 phosphorylation [4]: not found to have measurable effects | Kd (MBP-tagged RocCOR LRRK2): 45 to 60 nM and 45 nM | localization of LRRK2 to microtubules as filamentous skein-like structures [5, 6]: no significant localization

C[C@@H]1CN(c2cc(-c3n[nH]c4ccc(OC5(C)CC5)cc34)ncn2)C[C@H](C)O1 [MLi-2, reference compound]
inhibition of Rab10 phosphorylation ([4]; 1 μM MLi-2 (positive control)): nearly completely inhibited | localization of LRRK2 to microtubules as filamentous skein-like structures ([5]; 1 μM MLi-2, 6 h): considerable colocalization with tubulin
